According to ChEMBL document CHEMBL4715821, “Discovery of 4-ethoxy-7H-pyrrolo[2,3-d]pyrimidin-2-amines as potent, selective and orally bioavailable LRRK2 inhibitors” (Bioorg Med Chem Lett, 2018):

Legend:
[1] = Dose normalized AUC (0 to t) in Han-Wistar rat brain at 10 mg/kg, po measured up to 7 hrs by UPLC-MS/MS analysis; type: ADME, organism-based; conditions: in vivo
[2] = Unbound fraction in mouse brain; type: ADME, tissue-based
[3] = In vivo inhibition of LRRK2 in C57BL6 mouse assessed as reduction in Ser935 phosphorylation in lung at 45 mg/kg, po after 1 hr by Western blot analysis; type: functional; set-up: scale not given: the % may be the effect or the level left
[4] = target: Activated CDC42 kinase 1 (Homo sapiens) (UniProt Q07912); experiment: Inhibition of ACK1 (unknown origin) assessed as residual activity at 1 uM relative to control
[5] = target: Tyrosine-protein kinase receptor UFO (Homo sapiens) (UniProt P30530); experiment: Inhibition of wild-type human partial length AXL (R497 to Y821 residues) expressed in bacterial expression system assessed as residual activity at 1 uM by Kinomescan method relative to control
[6] = target: Serine/threonine-protein kinase B-raf (Homo sapiens) (UniProt P15056); experiment: Inhibition of wild type human BRAF (S429 to E741 residues) expressed in bacterial expression system assessed as residual activity at 1 uM by Kinomescan method relative to control
[7] = target: Calcium/calmodulin-dependent protein kinase type 1 (Homo sapiens) (UniProt Q14012); experiment: Inhibition of wild-type human full length CAMK1A (M1 to L370 residues) expressed in bacterial expression system assessed as residual activity at 1 uM by Kinomescan method relative to control
[8] = target: Casein kinase I isoform alpha-like (Homo sapiens) (UniProt Q8N752); experiment: Inhibition of CK1a1L (unknown origin) assessed as residual activity at 1 uM by Kinomescan method relative to control
[9] = target: Myotonin-protein kinase (Homo sapiens) (UniProt Q09013); experiment: Inhibition of wild-type human partial length DMPK (V47 to V415 residues) expressed in bacterial expression system assessed as residual activity at 1 uM by Kinomescan method relative to control
[10] = target: Receptor tyrosine-protein kinase erbB-2 (Homo sapiens) (UniProt P04626); experiment: Inhibition of wild-type human partial length ERBB2 (K646 to V1225 residues) expressed in mammalian expression system assessed as residual activity at 1 uM by Kinomescan method relative to control
[11] = target: Mitogen-activated protein kinase 1 (Homo sapiens) (UniProt P28482); experiment: Inhibition of wild-type human full length ERK2 (M1 to S360 residues) expressed in bacterial expression system assessed as residual activity at 1 uM by Kinomescan method relative to control
[12] = target: Tyrosine-protein kinase FRK (Homo sapiens) (UniProt P42685); experiment: Inhibition of wild-type human partial length FRK (A215 to F503 residues) expressed in bacterial expression system assessed as residual activity at 1 uM by Kinomescan method relative to control
[13] = target: Rhodopsin kinase GRK7 (Homo sapiens) (UniProt Q8WTQ7); experiment: Inhibition of wild-type human full length GRK7 (M1 to L553 residues) expressed in mammalian expression system assessed as residual activity at 1 uM by Kinomescan method relative to control
[14] = target: Homeodomain-interacting protein kinase 4 (Homo sapiens) (UniProt Q8NE63); experiment: Inhibition of wild-type human partial length HIPK4 (M1 to V384 residues) expressed in bacterial expression system assessed as residual activity at 1 uM by Kinomescan method relative to control
[15] = target: Inhibitor of nuclear factor kappa-B kinase subunit epsilon (Homo sapiens) (UniProt Q14164); experiment: Inhibition of wild-type human full length IKK-epsilon (M1 to V716 residues) expressed in mammalian expression system assessed as residual activity at 1 uM by Kinomescan method relative to control
[16] = target: Mitogen-activated protein kinase 9 (Homo sapiens) (UniProt P45984); experiment: Inhibition of wild-type human full length JNK2 (M1 to Q382 residues) expressed in mammalian expression system assessed as residual activity at 1 uM by Kinomescan method relative to control
[17] = target: Serine/threonine-protein kinase STK11 (Homo sapiens) (UniProt Q15831); experiment: Inhibition of wild-type human full length LKB1 (M1 to Q433 residues) expressed in bacterial expression system assessed as residual activity at 1 uM by Kinomescan method relative to control
[18] = target: Serine/threonine-protein kinase Nek9 (Homo sapiens) (UniProt Q8TD19); experiment: Inhibition of wild-type human partial length NEK9 (P32 to R328 residues) expressed in bacterial expression system assessed as residual activity at 1 uM by Kinomescan method relative to control
[19] = target: Serine/threonine-protein kinase PAK 1 (Homo sapiens) (UniProt Q13153); experiment: Inhibition of wild-type human partial length PAK1 (S149 to H545 residues) expressed in bacterial expression system assessed as residual activity at 1 uM by Kinomescan method relative to control
[20] = target: Serine/threonine-protein kinase pim-1 (Homo sapiens) (UniProt P11309); experiment: Inhibition of wild-type human partial length PIM1 (A15 to K313 residues) expressed in bacterial expression system assessed as residual activity at 1 uM by Kinomescan method relative to control
[21] = target: Serine/threonine-protein kinase PLK3 (Homo sapiens) (UniProt Q9H4B4); experiment: Inhibition of wild-type human partial length PLK3 (A42 to L334 residues) expressed in mammalian expression system assessed as residual activity at 1 uM by Kinomescan method relative to control
[22] = target: cAMP-dependent protein kinase catalytic subunit PRKX (Homo sapiens) (UniProt P51817); experiment: Inhibition of wild-type human partial length PRKX (M1 to F358 residues) expressed in bacterial expression system assessed as residual activity at 1 uM by Kinomescan method relative to control
[23] = target: Receptor-interacting serine/threonine-protein kinase 2 (Homo sapiens) (UniProt O43353); experiment: Inhibition of wild-type human partial length RIPK2 (M1 to K310 residues) expressed in bacterial expression system assessed as residual activity at 1 uM by Kinomescan method relative to control
[24] = target: Serine/threonine-protein kinase 33 (Homo sapiens) (UniProt Q9BYT3); experiment: Inhibition of wild-type human full length STK33 (M1 to L514 residues) expressed in bacterial expression system assessed as residual activity at 1 uM by Kinomescan method relative to control
[25] = target: Serine/threonine-protein kinase TBK1 (Homo sapiens) (UniProt Q9UHD2); experiment: Inhibition of wild-type human full length TBK1 (M1 to L729 residues) expressed in mammalian expression system assessed as residual activity at 1 uM by Kinomescan method relative to control
[26] = target: Mitogen-activated protein kinase 7 (Homo sapiens) (UniProt Q13164); experiment: Inhibition of wild-type human partial length ERK5 (M1 to A409 residues) expressed in bacterial expression system assessed as residual activity at 1 uM by Kinomescan method relative to control
[27] = target: Serine/threonine-protein kinase PLK4 (Homo sapiens) (UniProt O00444); experiment: Inhibition of wild-type human partial length PLK4 (M1 to S273 residues) expressed in mammalian expression system assessed as residual activity at 1 uM by Kinomescan method relative to control

## CCOc1nc(Nc2ccc(C(=O)N3CCOCC3)cc2OC)nc2[nH]ccc12
[1]
  AUCt/dose: 252 ng·h/g/mg/kg
[2]
  fraction unbound: 0.01
[3]
  Activity: 80%
[4]
  Activity: 27.9%
[5]
  Activity: 93.9%
[6]
  Activity: 88%
[7]
  Activity: 85.9%
[8]
  Activity: 95%
[9]
  Activity: 103%
[10]
  Activity: 110%
[11]
  Activity: 93.5%
[12]
  Activity: 90.6%
[13]
  Activity: 98.4%
[14]
  Activity: 101%
[15]
  Activity: 88.8%
[16]
  Activity: 43.1%
[17]
  Activity: 99%
[18]
  Activity: 100%
[19]
  Activity: 95.3%
[20]
  Activity: 99.7%
[21]
  Activity: 88.1%
[22]
  Activity: 99.8%
[23]
  Activity: 91.7%
[24]
  Activity: 49.5%
[25]
  Activity: 91.7%
[26]
  Activity: 99.1%
[27]
  Activity: 58.8%
